Test results taken from patent publication US20250346593A1, “IMIDAZO(1,2-1)PYRIDINE DERIVATIVES AS RIPK2 INHIBITORS” (Interline Therapeutics, Inc., priority 2022, published 2025).
Where two headings read alike, the source gives them in different places.

Tests used:
[1] = target: GST-RIPK2 fusion protein (human RIPK2 amino acids 1-310) (Homo sapiens (Human), UniProt O43353); assay: RIPK2 binding competition assay (TR-FRET, Tracer 199)
[2] = tested on: NF-κB pathway (SEAP) in THP1-Dual cells; assay: THP-1 Dual cell SEAP assay (L18-MDP stimulated); assay type: cell-based; settings: Homo sapiens, THP1-Dual, read-out: NFkB THP1 IC50
[3] = read-out: RIPK2 IC50, RIPK2 binding competition assay

GST-RIPK2 fusion protein (human RIPK2 amino acids 1-310), sequence (O43353 1-310): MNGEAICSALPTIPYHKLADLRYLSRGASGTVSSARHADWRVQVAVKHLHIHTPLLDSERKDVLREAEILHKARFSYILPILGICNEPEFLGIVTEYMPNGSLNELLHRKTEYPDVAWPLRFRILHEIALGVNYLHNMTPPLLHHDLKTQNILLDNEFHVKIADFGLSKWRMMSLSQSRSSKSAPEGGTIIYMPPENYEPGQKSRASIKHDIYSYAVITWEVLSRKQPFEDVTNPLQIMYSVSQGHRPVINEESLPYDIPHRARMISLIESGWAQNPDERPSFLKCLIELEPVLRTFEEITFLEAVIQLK

COc1cc2ncc(-c3cnc(N)c(C#N)c3)n2cc1S(=O)(=O)C(C)(C)C [Example 23, 2-amino-5-(6-(tert-butylsulfonyl)-7-methoxyimidazo[1,2-a]pyridin-3-yl)nicotinonitrile]
IC50 [1, 3]: > 20 nM
IC50 [2]: > 1000 nM

COc1cc(N)cc(-c2cnn3ccc(S(=O)(=O)C(C)(C)C)cc23)c1 [Example 24, 3-(5-(tert-butylsulfonyl)pyrazolo [1,5-a]pyridin-3-yl)-5-methoxyaniline]
IC50 [1, 3]: > 20 nM
IC50 [2]: > 1000 nM

COc1ccc(-c2cnn3ccc(S(=O)(=O)C(C)(C)C)cc23)cc1N [Example 25, 5-(5-(tert-butylsulfonyl)pyrazolo [1,5-a]pyridin-3-yl)-2-methoxyaniline]
IC50 [1, 3]: > 20 nM
IC50 [2]: > 1000 nM

CC(C)(C)S(=O)(=O)c1ccn2ncc(-c3ccc(N)nc3)c2c1 [Example 26, 5-(5-(tert-butylsulfonyl)pyrazolo [1,5-a]pyridin-3-yl)pyridin-2-amine]
IC50 [1, 3]: > 20 nM
IC50 [2]: > 1000 nM

COc1cc2ncc(-c3ccc(F)c(N)c3F)n2cc1S(=O)(=O)C(C)(C)C [Example 27, 3-(6-(tert-butylsulfonyl)-7-methoxyimidazo[1,2-a]pyridin-3-yl)-2,6-difluoroaniline]
IC50 [1]: 2.5 to 20 nM
IC50 [2]: > 1000 nM

COc1cc2ncc(-c3ccc(OC)c(N)c3F)n2cc1S(=O)(=O)C(C)(C)C [Example 28, 3-(6-(tert-butylsulfonyl)-7-methoxyimidazo[1,2-a]pyridin-3-yl)-2-fluoro-6-methoxyaniline]
IC50 [1]: 2.5 to 20 nM
IC50 [2]: > 1000 nM

COc1cc2ncc(-c3cccc(N)c3F)n2cc1S(=O)(=O)C(C)(C)C [Example 29, 3-(6-(tert-butylsulfonyl)-7-methoxyimidazo[1,2-a]pyridin-3-yl)-2-fluoroaniline]
IC50 [1]: 2.5 to 20 nM
IC50 [2]: > 1000 nM

COc1cc2ncc(-c3cncc(N)c3)n2cc1S(=O)(=O)C(C)(C)C [Example 30, 5-(6-(tert-butylsulfonyl)-7-methoxyimidazo[1,2-a]pyridin-3-yl)pyridin-3-amine]
IC50 [1, 3]: > 20 nM
IC50 [2]: > 1000 nM

COc1cc2ncc(-c3cnc(N)c(N)c3)n2cc1S(=O)(=O)C(C)(C)C [Example 31, 5-(6-(tert-butylsulfonyl)-7-methoxyimidazo[1,2-a]pyridin-3-yl)pyridine-2,3-diamine]
IC50 [1, 3]: > 20 nM
IC50 [2]: > 1000 nM

COc1cc2ncc(-c3cc(N)ccc3F)n2cc1S(=O)(=O)C(C)(C)C [Example 32, 3-(6-(tert-butylsulfonyl)-7-methoxyimidazo[1,2-a]pyridin-3-yl)-4-fluoroaniline]
IC50 [1, 3]: > 20 nM
IC50 [2]: > 1000 nM

CNc1cncc(-c2cnc3cc(OC)c(S(=O)(=O)C(C)(C)C)cn23)c1 [Example 34, 5-(6-(tert-butylsulfonyl)-7-methoxyimidazo[1,2-a]pyridin-3-yl)-N-methylpyridin-3-amine]
IC50 [1, 3]: > 20 nM
IC50 [2]: > 1000 nM

COc1cc2ncc(-c3cc(N)c(C)c(F)c3)n2cc1S(=O)(=O)C(C)(C)C [Example 35, 5-(6-(tert-butylsulfonyl)-7-methoxyimidazo[1,2-a]pyridin-3-yl)-3-fluoro-2-methylaniline]
IC50 [1, 3]: > 20 nM
IC50 [2]: > 1000 nM

COc1cc2ncc(-c3cccc(N)c3)n2cc1S(=O)(=O)C(C)(C)C [Example 36, 3-(6-(tert-butylsulfonyl)-7-methoxyimidazo[1,2-a]pyridin-3-yl)aniline]
IC50 [1, 3]: > 20 nM
IC50 [2]: > 1000 nM

COc1cc2ncc(-c3cc(N)cc(S(C)(=O)=O)c3)n2cc1S(=O)(=O)C(C)(C)C [Example 37, 3-(6-(tert-butylsulfonyl)-7-methoxyimidazo[1,2-a]pyridin-3-yl)-5-(methylsulfonyl)aniline]
IC50 [1, 3]: > 20 nM
IC50 [2]: > 1000 nM

COc1cc2ncc(-c3cc(F)cc(N)c3F)n2cc1S(=O)(=O)C(C)(C)C [Example 38, 3-(6-(tert-butylsulfonyl)-7-methoxyimidazo[1,2-a]pyridin-3-yl)-2,5-difluoroaniline]
IC50 [1]: 1 to 2.5 nM
IC50 [2]: 50 to 250 nM
